Toxic doses and inconclusive results are not listed. Rule as the data show it: active = T/C of 150% or more; inactive = T/C below 125%.
Tested on: L1210 leukemia ip in BDF1 mice, survival T/C
Assay: NCI In Vivo Anticancer Drug Screen. Data for tumor model L1210 Leukemia (intraperitoneal) in B6D2F1 (BDF1) mice
Details: endpoint: mean survival time, higher = longer survival
In short: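 Mice bearing the transplanted tumor received compound or vehicle. Survival of the treated group was divided by that of the vehicle-treated control group to give the ratio.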

[1] = dose: 100.0 mg/kg/injection, schedule: Q01DX001 (ip), vehicle: saline
[2] = dose: 200.0 mg/kg/injection, schedule: Q01DX001 (ip), vehicle: saline
[3] = dose: 400.0 mg/kg/injection, schedule: Q01DX001 (ip), vehicle: saline
[4] = dose: 50.0 mg/kg/injection, schedule: Q01DX009 (ip), vehicle: saline
[5] = dose: 100.0 mg/kg/injection, schedule: Q01DX009 (ip), vehicle: saline
[6] = dose: 100.0 mg/kg/injection, schedule: Q01DX009 (ip), vehicle: Klucel (hydroxypropylcellulose) (HPC)
[7] = dose: 200.0 mg/kg/injection, schedule: Q01DX009 (ip), vehicle: Klucel (hydroxypropylcellulose) (HPC)
[8] = dose: 400.0 mg/kg/injection, schedule: Q01DX009 (ip), vehicle: Klucel (hydroxypropylcellulose) (HPC)
[9] = dose: 100.0 mg/kg/injection, schedule: Q01DX009 (ip), vehicle: saline with Tween-80

Measured: T/C

CS(=O)CC(N)C(=O)O (centres undefined)
inactive: [1] 97 % of control | [2] 102 % of control | [3] 103 % of control

CC(=O)Nc1ncnc2n[nH]c(C#N)c12
inactive: dose: 50.0 mg/kg/injection, schedule: Q01DX005 (ip), vehicle: saline with Tween-80 108 % of control | dose: 100.0 mg/kg/injection, schedule: Q01DX005 (ip), vehicle: saline with Tween-80 106 % of control

OCC1=CC(O)C2C=COC(C3OC(CO)C(O)C(O)C3O)C12 (centres undefined)
inactive: [4] 96 % of control | [5] 96 % of control | dose: 100.0 mg/kg/injection, schedule: Q04DX003 (ip), vehicle: saline 96 % of control | dose: 200.0 mg/kg/injection, schedule: Q01DX009 (ip), vehicle: saline 95 % of control | dose: 200.0 mg/kg/injection, schedule: Q04DX003 (ip), vehicle: saline 100 % of control | dose: 400.0 mg/kg/injection, schedule: Q04DX003 (ip), vehicle: saline 100 % of control

O=C(Nc1ccc(Cl)cc1)Nc1ncn[nH]1
inactive: dose: 75.0 mg/kg/injection, schedule: Q01DX001 (ip), vehicle: carboxymethylcellulose (CMC) 101 % of control | dose: 150.0 mg/kg/injection, schedule: Q01DX001 (ip), vehicle: carboxymethylcellulose (CMC) 97 % of control | dose: 300.0 mg/kg/injection, schedule: Q01DX001 (ip), vehicle: carboxymethylcellulose (CMC) 95 % of control

O=C(Nc1cccc(F)c1)Nc1ccc2ccccc2c1
inactive: [6] 105 % of control | [7] 97 % of control | [8] 97 % of control

c1ccc2c(c1)oc1ccccc12
inactive: [1] 102 % of control | [2] 102 % of control | [3] 96 % of control

CCN(CC)c1ccc(N=Nc2ccc(S(=O)(=O)O)cc2)cc1
inactive: dose: 25.0 mg/kg/injection, schedule: Q01DX009 (ip), vehicle: saline 97 % of control | [4] 91 % of control | [1] 88 % of control | [5] 100 % of control

O=C(C[n+]1ccccc1Br)c1ccc2ccccc2c1
inactive: dose: 9.38 mg/kg/injection, schedule: Q01DX001 (ip), vehicle: other 104 % of control | dose: 18.75 mg/kg/injection, schedule: Q01DX001 (ip), vehicle: other 103 % of control | dose: 37.5 mg/kg/injection, schedule: Q01DX001 (ip), vehicle: other 103 % of control

Nc1nc(N)c2[nH]cnc2n1 (tested in a mixture with another compound)
inactive: dose: 100.0 mg/kg/injection, schedule: Q01DX001 (ip), vehicle: carboxymethylcellulose (CMC) 93 % of control | dose: 200.0 mg/kg/injection, schedule: Q01DX001 (ip), vehicle: carboxymethylcellulose (CMC) 89 % of control | dose: 400.0 mg/kg/injection, schedule: Q01DX001 (ip), vehicle: carboxymethylcellulose (CMC) 94 % of control

NCC(OC1CCCCC1)C(Cl)(Cl)Cl (centres undefined)
inactive: dose: 50.0 mg/kg/injection, schedule: Q01DX009 (ip), vehicle: saline with Tween-80 92 % of control | [9] 97 % of control

CCCOc1ccc(/C=N\N=C\c2ccc(OCCC)cc2)cc1
inactive: [9] 94 % of control | dose: 200.0 mg/kg/injection, schedule: Q01DX009 (ip), vehicle: saline with Tween-80 94 % of control | dose: 400.0 mg/kg/injection, schedule: Q01DX009 (ip), vehicle: saline with Tween-80 91 % of control

CN(C)C(=S)Oc1ccc(OC(=S)N(C)C)cc1
inactive: dose: 100.0 mg/kg/injection, schedule: Q04DX003 (ip), vehicle: saline with Tween-80 100 % of control | dose: 200.0 mg/kg/injection, schedule: Q04DX003 (ip), vehicle: saline with Tween-80 95 % of control | dose: 400.0 mg/kg/injection, schedule: Q04DX003 (ip), vehicle: saline with Tween-80 100 % of control

Clc1ccc(C=Nc2cccc3ccccc23)c(Cl)c1
inactive: [6] 90 % of control | [7] 98 % of control | [8] 93 % of control

COc1ccc(C)nn1
inactive: dose: 100.0 mg/kg/injection, schedule: Q04DX002 (ip), vehicle: saline 106 % of control | dose: 200.0 mg/kg/injection, schedule: Q04DX002 (ip), vehicle: saline 106 % of control | dose: 400.0 mg/kg/injection, schedule: Q04DX002 (ip), vehicle: saline 122 % of control

— PubChem BioAssay AID248 (DTP/NCI, 2004)
